“And” between values parts separate entries of the source, which are not always exact repeats. Equal values may be shown once. Read-outs that look alike come from different tables or passages of the source.
Assays:
[1] = Determination of logP, pka and logS (Sirius T3); assay type: physicochemical; details: Experimental
Protocol: The physicochemical parameters were determined on a Sirius T3 machine (Sirius Analytical machines, East Sussex, UK) by automated titration according to the manufacturer's instructions.

CK2α = target: T1, CK2α (Homo sapiens, UniProt P68400); experiment: CK2α kinase assay (counter screen); assay type: biochemical; details: read-out: percentage of inhibition CK2α
T1 construct: purchased Life Technologies (Invitrogen SelectScreen); Dyrk1A, Dyrk2 and CK2α in-house or gifts
T1 sequence (P68400 whole entry): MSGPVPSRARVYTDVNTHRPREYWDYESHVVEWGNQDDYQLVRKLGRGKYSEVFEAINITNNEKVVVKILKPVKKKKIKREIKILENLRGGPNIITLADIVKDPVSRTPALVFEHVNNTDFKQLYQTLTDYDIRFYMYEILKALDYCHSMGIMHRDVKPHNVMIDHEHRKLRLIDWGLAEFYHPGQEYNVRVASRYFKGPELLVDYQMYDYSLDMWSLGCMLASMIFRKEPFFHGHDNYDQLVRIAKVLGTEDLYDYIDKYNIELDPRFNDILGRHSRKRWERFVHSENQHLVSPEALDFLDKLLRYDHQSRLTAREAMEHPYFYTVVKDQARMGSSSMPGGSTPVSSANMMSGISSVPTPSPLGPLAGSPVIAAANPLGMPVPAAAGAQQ
Protocol: Dyrk1A, Dyrk1B, Dyrk2, CK2α and Clk1 kinase reactions were performed in a reaction buffer containing 50 mM Tris/HCl, pH 7.4, 0.1 mM EGTA, 0.5 mM DTT, 10 mM MgCl2, 100 µM ATP and 0.33 µM [γ-^32ATP] as well as the appropriate substrate peptides, which were 100 µM Woodtide for the Dyrk isoforms ([…]-NH2), 60 µM CK2 substrate peptide ([…]-NH2, from Millipore) for CK2α or RS repeat peptide ([…]) for Clk1. The CK2α protein was a kind gift of M. Montenarh (Homburg). The kinase reactions were performed at 30°C for 15 min and terminated by spotting 5 µL of the reaction mixture onto a P81 phosphocellulose membrane (Whatman). The membrane was washed four times with 0.3% phosphoric acid and one time with acetone and dried. The dry membrane was exposed in a cassette to a Phosphor Screen Imaging Plate (FujiFilm) and the signals detected by scanning of the imaging plate in a Fuji FLA-3000 PhosphoImager. The spots were quantified using AIDA software (Raytest, Version 3.52) to determine the activities of the kinases in the assay reactions. […] IC50 values were calculated by fitting the data with Origin Pro 8.6 (OriginLabs). The calculated IC50 values are representative of at least two independent determinations.

Dyrk2 = target: T2, Dyrk2 (Homo sapiens, UniProt Q92630); experiment: Dyrk2 kinase assay (32P-ATP, Woodtide); assay type: biochemical; details: for inhibition at 5 µM: read-out: percentage of inhibition Dyrk2
T2 construct: made in house; host or cells: Escherichia coli BL21(DE3) with pRARE; plasmid pGEX-2TK-Dyrk2 (gift from W. Becker, Aachen)
T2 sequence (Q92630 1-601): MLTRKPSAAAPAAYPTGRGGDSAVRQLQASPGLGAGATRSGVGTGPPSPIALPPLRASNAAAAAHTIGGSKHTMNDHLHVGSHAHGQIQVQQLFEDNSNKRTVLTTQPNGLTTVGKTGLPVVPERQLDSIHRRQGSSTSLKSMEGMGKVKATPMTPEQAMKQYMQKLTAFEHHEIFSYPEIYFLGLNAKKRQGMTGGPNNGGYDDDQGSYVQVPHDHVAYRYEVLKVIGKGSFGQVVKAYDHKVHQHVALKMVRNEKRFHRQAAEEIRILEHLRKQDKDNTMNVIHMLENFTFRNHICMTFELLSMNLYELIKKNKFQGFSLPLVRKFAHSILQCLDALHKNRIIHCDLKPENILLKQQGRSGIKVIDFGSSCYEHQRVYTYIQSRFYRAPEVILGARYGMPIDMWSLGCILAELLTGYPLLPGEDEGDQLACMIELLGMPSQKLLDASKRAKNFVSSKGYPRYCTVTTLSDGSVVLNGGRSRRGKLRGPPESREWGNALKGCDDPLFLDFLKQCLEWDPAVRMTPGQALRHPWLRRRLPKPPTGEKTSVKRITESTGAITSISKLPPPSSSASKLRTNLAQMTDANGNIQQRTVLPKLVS

Dyrk1B = target: T3, Dyrk1B (Homo sapiens, UniProt Q9Y463); experiment: Dyrk1B kinase assay (32P-ATP, Woodtide); assay type: biochemical; details: for IC50: 100 µM ATP
T3 construct: purchased Life Technologies PV4649 (LOT # 877059G)
T3 sequence (Q9Y463 whole entry): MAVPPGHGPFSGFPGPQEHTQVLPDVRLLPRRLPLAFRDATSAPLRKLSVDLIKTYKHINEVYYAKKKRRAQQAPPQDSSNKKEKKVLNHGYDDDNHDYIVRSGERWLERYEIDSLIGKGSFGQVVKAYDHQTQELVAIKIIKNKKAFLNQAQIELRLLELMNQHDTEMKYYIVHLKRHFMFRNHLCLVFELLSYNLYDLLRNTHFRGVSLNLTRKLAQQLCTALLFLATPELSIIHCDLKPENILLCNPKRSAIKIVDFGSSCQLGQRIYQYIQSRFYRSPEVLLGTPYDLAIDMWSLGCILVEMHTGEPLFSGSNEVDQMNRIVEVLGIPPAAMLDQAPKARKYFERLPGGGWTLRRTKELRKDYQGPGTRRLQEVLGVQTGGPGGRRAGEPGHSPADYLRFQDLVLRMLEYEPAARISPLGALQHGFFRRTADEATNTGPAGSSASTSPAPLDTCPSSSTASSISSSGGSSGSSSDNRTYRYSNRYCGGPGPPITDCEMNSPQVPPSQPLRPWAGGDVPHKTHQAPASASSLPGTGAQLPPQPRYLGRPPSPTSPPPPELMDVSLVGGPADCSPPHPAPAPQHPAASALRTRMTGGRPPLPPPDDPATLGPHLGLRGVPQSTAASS

Dyrk1A = target: T4, Dyrk1A (Homo sapiens, UniProt Q13627); experiment: Dyrk1A kinase assay (32P-ATP, Woodtide); assay type: biochemical; details: for IC50: 100 µM ATP; for inhibition at 5 µM: read-out: percentage of inhibition Dyrk1A
T4 construct: encoding the catalytic domain of human Dyrk1A; thrombin cleavage site (N); made in house; host or cells: Escherichia coli BL21(DE3) with pRARE

U2OS osteosarcoma cells = experiment: Caspase-3 Assay (Caspase-Glo 3/7); assay type: cell-based; details: starved U2OS cells, 48 hours, vs DMSO control
Protocol: U2OS osteosarcoma cells were seeded in a 96 well flat bottom plate (15*10^3 cells/well). […] The induction of caspase-3/7 activity was measured using the Promega Caspase-Glo 3/7 assay system (Promega, LOT 0000054568). The resulting luciferase reaction signals that are proportional to the caspase induction were measured in a POLARstar plate reader (BMG Labtech, Offenburg, Germany). […] Values obtained for different compound concentrations were compared using the two-sided Student's t test; levels of significance thus obtained are indicated by asterisks.

[2] = tested on: V79 hamster lung fibroblast cells; experiment: ViaLight Toxicity Assay; assay type: cell-based; details: 48 hours
Protocol: V79 hamster lung fibroblast cells were plated at a density of 45,000 cells per well in a white 96 well plate and allowed to adhere and grow for 24 hours. The compounds were then applied as dilutions in cell culture medium (DMEM with 10% FCS and penicillin/streptomycin mix) at a final concentration of 5, 10, and 20 µM, respectively. The plate was further incubated for 48 hours at 37°C in a humidified atmosphere containing 5% CO2. The ATP level was detected with a LONZA ViaLight™ Plus Kit according to protocol 1 of the vendor's instructions. Luminescence was measured in a POLARstar plate reader (BMG Labtech, Offenburg, Germany). The background luminescence was obtained from equally treated, cell-free wells containing serum, and subtracted from all values. Inhibition values obtained for different compound concentrations were compared using the two-sided Student's t-test; levels of significance thus obtained are indicated by asterisks.

Clk1 = Clk1 (Homo sapiens, UniProt P49759); experiment: Clk1 kinase assay (RS repeat peptide); assay type: biochemical; details: read-out: % inhibition Clk1
Sequence of Clk1 (P49759 whole entry): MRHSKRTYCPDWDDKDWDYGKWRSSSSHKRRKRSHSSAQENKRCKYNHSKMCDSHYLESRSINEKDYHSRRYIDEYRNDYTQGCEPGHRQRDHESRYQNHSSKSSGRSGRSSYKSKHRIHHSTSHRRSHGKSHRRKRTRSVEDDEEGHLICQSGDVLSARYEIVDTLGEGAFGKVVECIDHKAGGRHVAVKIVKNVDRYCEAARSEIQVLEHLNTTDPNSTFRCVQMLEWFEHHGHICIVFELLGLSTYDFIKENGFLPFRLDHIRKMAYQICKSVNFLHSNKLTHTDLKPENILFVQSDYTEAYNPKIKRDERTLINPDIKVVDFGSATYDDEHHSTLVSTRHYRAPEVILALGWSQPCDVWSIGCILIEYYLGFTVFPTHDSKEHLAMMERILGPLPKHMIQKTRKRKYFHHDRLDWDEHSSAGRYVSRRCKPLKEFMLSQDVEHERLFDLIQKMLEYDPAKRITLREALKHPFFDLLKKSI

[3] = Metabolic Stability Assay; details: male, Sprague-Dawley, rat, microsomes
[4] = 100 µM ATP, read-out: IC50 Dyrk2
[5] = read-out: percentage of inhibition Dyrk1B

Question: Which logP [1] does the source give for c1cncc(-c2csc(-c3cccnc3)c2)c1 [Compound 4] here?
Answer: 2.47

Question: What about the solubility ([1]; read-out: Solubility) of the same compound?
Answer: 500 µg/mL

Question: What about the solubility ([1]; read-out: logS (converted)) of the same compound?
Answer: 2140 µM

Question: What about the pKa ([1]; read-out: pka1) of the same compound?
Answer: 3.48

Question: And the pKa ([1]; read-out: pka2)?
Answer: 4.8

Question: What about the inhibition at 5 µM (CK2α) of the same compound?
Answer: 18.5%

Question: With Cc1cncc(-c2csc(-c3cccnc3)c2)c1 [Compound 5, 3-methyl-5-[5-(pyridin-3-yl)thiophen-3-yl]pyridine] as the compound, how does the IC50 (Dyrk2; [4]) read?
Answer: 0.6 µM

Question: What about the IC50 (Dyrk1B) of the same compound?
Answer: 1.2 µM

Question: What about the IC50 (Dyrk1A) of the same compound?
Answer: 0.9 µM

Question: And the inhibition at 5 µM (CK2α)?
Answer: 5%

Question: And the melting point?
Answer: 106 to 107 °C

Question: What does the source list for COc1cncc(-c2csc(-c3cccnc3)c2)c1 [Compound 8, 3-methoxy-5-[5-(pyridin-3-yl)thiophen-3-yl]pyridine]?
Answer: IC50 (Dyrk2; [4]): 0.2 µM; IC50 (Dyrk1B): 0.3 µM; IC50 (Dyrk1A): 0.7 µM; inhibition at 5 µM (CK2α): 16%; melting point: 132 to 133 °C

Question: For c1cncc(-c2cc(-c3ccncc3)cs2)c1 [Compound 11], which inhibition at 5 µM (Dyrk2; at 5 µM) is on record?
Answer: 20%

Question: What about the caspase-3/7 activity (U2OS osteosarcoma cells) of the same compound?
Answer: only a slight increase

Question: What about the “influence on cell growth (cellular ATP levels)” value ([2]; V79 cells, 5, 10 and 20 µM) of the same compound?
Answer: no influence

Question: And the inhibition at 5 µM (Dyrk1B; [5])?
Answer: 10%

Question: What about the inhibition at 5 µM (Dyrk1A; at 5 µM) of the same compound?
Answer: 10%

Question: What about the inhibition at 5 µM (CK2α) of the same compound?
Answer: 0%

Question: For Fc1cncc(-c2csc(-c3cccnc3)c2)c1 [Compound 15, 3-fluoro-5-[5-(pyridin-3-yl)thiophen-3-yl]pyridine], which IC50 (Dyrk2; [4]) is on record?
Answer: 0.4 µM

Question: And the IC50 (Dyrk1B)?
Answer: 1.4 µM

Question: What about the IC50 (Dyrk1A) of the same compound?
Answer: 0.9 µM

Question: And the inhibition at 5 µM (CK2α)?
Answer: 0%

Question: And the melting point?
Answer: 186 to 187 °C

Question: For CC(=O)c1cncc(-c2csc(-c3cccnc3)c2)c1 [Compound 17, 1-{5-[5-(pyridin-3-yl)thiophen-3-yl]pyridin-3-yl}ethan-1-one], which IC50 (Dyrk2; [4]) is on record?
Answer: 0.9 µM

Question: And the IC50 (Dyrk1B)?
Answer: 1.1 µM

Question: And the IC50 (Dyrk1A)?
Answer: 0.9 µM

Question: And the inhibition at 5 µM (CK2α)?
Answer: 0%

Question: And the melting point?
Answer: 166 to 167 °C

Question: Which IC50 (Dyrk2; [4]) does the source give for NC(=O)c1cncc(-c2csc(-c3cccnc3)c2)c1 [Compound 19, 5-[5-(pyridin-3-yl)thiophen-3-yl]pyridine-3-carboxamide] here?
Answer: 0.3 µM

Question: And the IC50 (Dyrk1B)?
Answer: 1.5 µM

Question: What about the IC50 (Dyrk1A) of the same compound?
Answer: 0.9 µM

Question: What about the inhibition at 5 µM (CK2α) of the same compound?
Answer: 4.2%

Question: And the melting point?
Answer: 217 to 218 °C

Question: Which IC50 (Dyrk2; [4]) does the source give for c1cncc(-c2cc(-c3cnc4ccccc4c3)cs2)c1 [Compound 20] here?
Answer: 1.8 µM

Question: And the IC50 (Dyrk1B)?
Answer: 0.9 µM

Question: And the IC50 (Dyrk1A)?
Answer: 1.1 µM

Question: What about the inhibition at 5 µM (CK2α) of the same compound?
Answer: 27%

Question: For c1cncc(-c2cc(-c3cncc4ccccc34)cs2)c1 [Compound 21], which IC50 (Dyrk2; [4]) is on record?
Answer: 2.9 µM

Question: And the IC50 (Dyrk1B)?
Answer: 3.2 µM

Question: And the IC50 (Dyrk1A)?
Answer: 3.5 µM

Question: What about the inhibition at 5 µM (CK2α) of the same compound?
Answer: 6%

Question: For c1cncc(-c2cc(-c3cncnc3)cs2)c1 [Compound 22], which IC50 (Dyrk2; [4]) is on record?
Answer: 1.8 µM

Question: And the IC50 (Dyrk1B)?
Answer: 3.5 µM

Question: And the IC50 (Dyrk1A)?
Answer: 1.8 µM

Question: What about the inhibition at 5 µM (CK2α) of the same compound?
Answer: 0%

Question: Which IC50 (Dyrk2; [4]) does the source give for Nc1cc(-c2csc(-c3cccnc3)c2)cnc1Cl [Compound 23] here?
Answer: 0.3 µM

Question: And the IC50 (Dyrk1B)?
Answer: 1.4 µM

Question: And the IC50 (Dyrk1A)?
Answer: 1.3 µM

Question: And the inhibition at 5 µM (CK2α)?
Answer: 0%

Question: With Cn1cnc2cc(-c3csc(-c4cccnc4)c3)cnc21 [Compound 24] as the compound, how does the IC50 (Dyrk2; [4]) read?
Answer: 0.63 µM and 0.6 µM

Question: And the inhibition at 1 µM (Dyrk1B; at 1 µM, read-out: percentage of inhibition Dyrk1B)?
Answer: 13%

Question: What about the inhibition at 5 µM (Dyrk1A; at 5 µM) of the same compound?
Answer: 37%

Question: And the inhibition at 5 µM (CK2α)?
Answer: 7%

Question: With c1cncc(-c2cc(-c3cnc4ccccn34)cs2)c1 [Compound 32] as the compound, how does the IC50 (Dyrk2; [4]) read?
Answer: 0.4 µM

Question: What about the IC50 (Dyrk1B) of the same compound?
Answer: 0.6 µM

Question: And the IC50 (Dyrk1A)?
Answer: 2.2 µM

Question: What about the inhibition at 5 µM (CK2α) of the same compound?
Answer: 0%

Question: For Cc1cncc(-c2csc(-c3cnco3)c2)c1 [Compound 35], which IC50 (Dyrk2; [4]) is on record?
Answer: 1.5 µM

Question: And the IC50 (Dyrk1B)?
Answer: 1.1 µM

Question: And the IC50 (Dyrk1A)?
Answer: 1.2 µM

Question: What about the inhibition at 5 µM (CK2α) of the same compound?
Answer: -15%

Question: Which IC50 (Dyrk2; [4]) does the source give for c1ncc(-c2cc(-c3cn[nH]c3)cs2)o1 [Compound 38] here?
Answer: 1.5 µM

Question: What about the IC50 (Dyrk1B) of the same compound?
Answer: 2.2 µM

Question: What about the IC50 (Dyrk1A) of the same compound?
Answer: 1.5 µM

Question: And the inhibition at 5 µM (CK2α)?
Answer: -20%

Question: Which IC50 (Dyrk2; [4]) does the source give for Cc1cncc(-c2csc(-c3cncnc3)c2)c1 [Compound 43] here?
Answer: 3.8 µM

Question: And the IC50 (Dyrk1B)?
Answer: 2.2 µM

Question: What about the IC50 (Dyrk1A) of the same compound?
Answer: 5 µM

Question: And the inhibition at 5 µM (CK2α)?
Answer: -15%

Question: For c1cncc(-c2csc(-c3cncc4ccccc34)c2)c1 [Compound 47], which IC50 (Dyrk2; [4]) is on record?
Answer: 1.2 µM

Question: What about the IC50 (Dyrk1B) of the same compound?
Answer: 2.4 µM

Question: What about the IC50 (Dyrk1A) of the same compound?
Answer: 1.5 µM

Question: And the inhibition at 5 µM (CK2α)?
Answer: 3%

Question: Which results are given for COc1ccc2c(c1)[nH]c1c(C)nccc12 [Harmine, harmine, reference compound]?
Answer: IC50 (Dyrk2; IC50 Dyrk2, 100 µM ATP): 3 µM; inhibition at 5 µM (Dyrk2): 68%; influence on cell viability (cellular ATP levels) ([2]; V79 cells, 5 µM): slightly toxic; inhibition at 5 µM (Dyrk1B; [5]): 98%; inhibition at 5 µM (Clk1): 97%; inhibition at 5 µM (Dyrk1A): 98%; CLhep predicted at 0.5 µM [3]: 53 mL/min/kg; half-life at 0.5 µM [3]: 18 min
